Experimental findings from patent US10336702B2, “Pharmaceutically active compounds” (BERGENBIO ASA, priority 2015, dated 2019) are described below.

One assay has as its system HMLER-Akt3 cells. The assay can be described thus: HMLER-Akt3 tumour seeding xenograft model. The class given is in vivo, NSG mice. The note with it: for tumour initiation: 100 mg/kg once a day from day of implantation; for Tumour incidence (tumours formed/total number of implantations): 100 mg/kg once a day, after 2 weeks, tumours exceeding 20 mm^3. As to the method:
HMLER cells are not very tumourigenic. However, after enforced expression of Akt3, these cells are able to initiate tumours.
Mice implanted with 10^5 or 10^6 HMLER-Akt3 cells were treated with vehicle, EX34 or EX33 at 100 mg/kg once a day. Treatment was initiated on the day of tumour cell implantation. A total of 10 tumours were implanted for each treatment condition. Tumour incidence was evaluated after 2 weeks and tumour size cut of was set at 20 mm^3. Significance determined by unpaired Student two-tailed t test.
The numbers are given as tumours formed/total number of implantations. Significance was determined by unpaired two-tailed Student t-test. Ns: not significant.

In assay [1] the test system is MBBR3A human melanoma cancer cell line. The assay can be described thus: MBBR3A human melanoma sub-cutaneous xenograft model. The class given is in vivo, Nude mice. As to conditions: 50 mg/kg b.i.d. oral gavage, 5-days on 2-days off, 15 days. As to the method:
Tumour volumes of mice treated with vehicle or EX33 (50 mg/kg b.i.d.) were measured by caliper twice a week, over the course of 15 days. Data is given as Mean±SEM, n=10-12. Statistical analysis was performed by an unpaired two-tailed Student t test.
Nude mice were injected subcutaneously with MBBR3A cells, and the effect on tumour growth of EX33 was evaluated. EX33 was administered at 50 mg/kg EX33 given by oral gavage twice a day in a 5-days on and 2-days off cycle. Tumour growth was monitored by caliper measurements twice a week.
Data are given as Mean±SEM, n=10-12. Statistical analysis was performed by unpaired two-tailed Student t test.

The subject of a further assay is MDA-MB-468 cells. The assay can be described thus: TNBC MDA-MB-468 subcutaneous xenograft model. The class given is in vivo, NSG mice. The note with it: 50 mg/kg b.i.d. oral gavage, 5-days on 2-days off, 19 days. As to the method:
Tumour volumes of mice treated with vehicle or EX33 (50 mg/kg b.i.d.) were measured by caliper twice a week, over the course of 19 days. Data is given as Mean±SEM, n=6-10. Statistical analysis was performed by an unpaired two-tailed Student t test.
The MDA-MB-468 model has previously been reported in the literature to be dependent upon Akt3 for xenograft tumour growth (Chin et al., Cancer Res 2014).
NSG mice were injected subcutaneously with MDA-MB-468 cells, and the effect on tumour growth of EX33 was evaluated. EX33 was administered at 50 mg/kg, and was given by oral gavage twice a day in a 5-days on and 2-days off cycle. Tumour growth was monitored by caliper measurements twice a week.
Data are given as Mean±SEM, n=6-10. Statistical analysis was performed by unpaired two-tailed Student t test.

Assay [2] concerns MDA-MB-231-D3H2LN/GPF-Luc cells. The assay is described as follows: Invasive 3D tumour cell growth in matrigel. The class given is cell-based. The note with it: 2 μM, 72 hours, fluorescence microscopy. On the procedure: The TNBC aggressive cell line MDA-MB-231-D3H2LN/GPF-Luc was seeded in matrigel on cover slides to obtain invasive 3D tumour cell colonies. Cell cultures were treated for 72 hours with DMSO (control), 2 μM EX34 or 2 μM EX33, and colonies were evaluated by fluorescence microscopy for 3D invasive growth.

Another assay relates to NSCLC cell line H2086. The assay is described as follows: EMT induction (Vimentin immune blotting) with TGF-β under hypoxia. The note with it: H2086 cells, 20 ng/ml TGF-β, 1% O2, 5 days, 1 μM compound. The class given is cell-based. On the procedure: EMT induction was evaluated by quantification of the EMT marker Vimentin. NSCLC H2086 cells were treated with 20 ng/ml TGF-β under hypoxic conditions (1% O2) for 5 days. The effect on Vimentin was evaluated by immune blotting for cells treated with Vehicle (DMSO), 1 μM EX33 or 1 μM EX34, and the results are shown in FIG. 7. Glyceraldehyde-3-phosphate dehydrogenase (GAPDH) was used as loading control. The band intensity of Vimentin has been related to the intensity of the GAPDH band.
NSCLC H2086 cells were treated with 20 ng/ml TGF-β under hypoxic conditions (1% O2) for 5 days to induce EMT. The ability of EX33 and EX34 to prevent EMT was evaluated by quantification of the EMT marker Vimentin. The effect on Vimentin was evaluated by immune blotting for cells treated with Vehicle (DMSO), 1 μM EX33 or 1 μM EX34. GAPDH was used as loading control. The band intensity of Vimentin has been related to the intensity of the GAPDH band.

The test system of assay [3] is hepatic stellate cell line LX2. The assay can be described thus: α-sma protein and mRNA levels in activated hepatic stellate cells. The class given is cell-based, human. On the procedure: LX2 cells were treated for 72 hours with the indicated dosages of EX33 (μM). Cell lysates were analyzed by immune blotting for alpha-smooth muscle actin (α-SMA), PCNA and total p-Akt. Actin was used as a loading control.
LX2 cells were treated for 24 hours with the indicated dosages of EX33 (μM). mRNA was isolated and analyzed by RT-PCR for α-SMA expression. Expression level in Vehicle treated cells (0 EX33) was set to 1, and α-sma expression levels following treatment with indicated dosages of EX33 calculated relative to that.
Liver fibrosis is characterized by accumulation of extracellular matrix components such as alpha-smooth muscle actin (α-sma) mainly derived from activated hepatic stellate cells (HSCs).
The role of AKT3 in liver fibrosis was analyzed by studying the efficacy of EX33 to block HSC activation. The human activated hepatic stellate cell line LX2 was treated with different dosages of EX33 and the effects on α-sma protein and mRNA levels were analysed by immune blotting (see FIG. 9) and RT-PCR (see FIG. 10) respectively.

The test system of assay [4] is pAkt1, pAkt2 and pAkt3 in MCF10DCIS xenograft tumours. The assay is described as follows: Akt phosphorylation in MCF10DCIS xenograft tumours (SureFire). The class given is in vivo, mice. The note with it: 25 mg/kg oral gavage once a day for 2, 4 or 6 days; pAkt1, pAkt2, pAkt3 measured. As to the method:
Mice carrying MCF10DCIS xenograft tumours were treated with Vehicle or EX33 at 25 mg/kg once a day for 2, 4 or 6 days. Tumours were harvested and analyzed by SureFire assay for levels of pAkt1, pAkt2 and pAkt3. Average±SEM are shown, n=4.
Nude mice were injected subcutaneously with MCF10DCIS cells. When the average tumour size reached 440 mm^3, EX33 was administered at 25 mg/kg for 2, 4 or 6 days. EX33 was given by oral gavage once a day. Tumours were harvested and analyzed by SureFire assay for levels of pAkt1, pAkt2 and pAkt3. Average±SEM are shown, n=4.

A further assay deals with Akt3 in MDA-MB-231 cells. The assay can be described thus: Cellular (nuclear) localization of Akt3 by immune fluorescence microscopy. As to conditions: 2 μM, 36 hours. The class given is cell-based. As to the method: FIGS. 4 and 5 refer to the cellular localization of Akt3 in MDA-MB-231 cells that were treated for 36 hours with EX33 or EX34. In FIG. 4, cells were stained to visualize the nucleus (top left panel) and Akt3 (top right panel) and analyzed using immune fluorescence microscopy. […] The results were obtained using TissueQuest Software.
The cellular program of epithelial to mesenchymal transition (EMT) is utilized by tumour cells to develop drug resistance and to metastasize. Nuclear translocation of Akt3 is considered crucial for Akt3's ability to phosphorylate SNAIL and induce EMT.
MDA-MB-231 cells were treated for 36 hours with Vehicle (DMSO) or 2 μM EX34. Cells were stained to visualize the nucleus and Akt3. […] Mean intensity of Akt3 in the nucleus was evaluated after treatment with DMSO (control) or EX33 using TissueQuest Software (see FIG. 5).

Assay [5] deals with TNBC cell line MDA-MB-231. The assay is described as follows: 3D tumour cell growth in matrigel. The class given is cell-based. The note with it: MDA-MB-231 in matrigel, increasing concentrations, 9 days, DMSO control. On the procedure: MDA-MD-231 cells were treated with increasing concentrations of EX34 or EX33 for 9 days. Treatment was initiated one day after tumour cell seeding. DMSO was used as control. The graphs in FIG. 2 show average tumour size±SEM following treatment with each of EX34 and EX33. Images of the 3D cultures were batch analysed with AMIDA software.
In order to evaluate the role of Akt3 in tumour cell growth and invasion, the effect of two compounds of the invention, the compound of Example 34 (denoted hereafter as EX34) and the compound of Example 33 (denoted hereafter as EX33), on 3D growth in matrigel was assessed.
The TNBC cell line MDA-MB-231 was seeded in matrigel and the cell cultures were treated with increasing concentrations of EX34 or EX33 for 9 days. Treatment was initiated one day after tumour cell seeding. DMSO was used as control. The average tumour sphere size was then evaluated for each treatment. Representative pictures are shown in FIG. 1 for each of the indicated treatment conditions.
Images of the 3D cultures were batch analysed with AMIDA software to quantify the 3D tumour sphere size.

For another assay, the system named is NSCLC cell line H2073. The assay is described as follows: Cell viability with paclitaxel (resazurin reduction) in paclitaxel-resistant cells. The class given is cell-based. The note with it: paclitaxel with or without compound, 72 hours. On the procedure: Cell viability was evaluated using resazurin reduction. Average±SEM are shown, n=3.
The NSCLC cell line H2073 was established from a patient that was resistant to treatment with paclitaxel.
H2073 cells were treated with increasing dosages of paclitaxel in the absence or presence of EX34 for 72 hours, and cell viability was evaluated using resazurin reduction. Average±SEM are shown, n=3.

Setting [6] is: 10^5 HMLER-Akt3 cells implanted.
Where [7] appears, read: 10^6 HMLER-Akt3 cells implanted.

For `CC(=O)N(C)[C@H]1CC[C@H](CC(=O)Nc2cc(-c3ccccc3)c(-c3ccc(C4(N)CCC4)cc3)cn2)CC1` [EX33], the tumour initiation entry with HMLER-Akt3 cells is recorded as “prevented tumour initiation”. Moreover, the “Tumour incidence (tumours formed/total number of implantations)” value in the assay on HMLER-Akt3 cells (setting [6]) and with HMLER-Akt3 cells (setting [7]) was 0/10^<0.0001 in each case. In addition, the “primary tumour growth (tumour volume)” value (in assay [1]; with MDA-MB-468 cells) was “reduced tumour growth compared to vehicle treated mice” in each case. Besides, the “invasive 3D tumour cell growth” value in assay [2] was “inhibited tumour cell growth”. Also, the “EMT induction (EMT marker Vimentin)” value in the assay with NSCLC cell line H2086 is given as “prevent EMT induction”. For the same compound, the “α-sma mRNA level” value in [3] (24 hours, RT-PCR) is “decreases the levels of α-sma mRNA and protein”. In addition, the α-sma protein level entry in [3] (72 hours, immune blotting) is “decreases the levels of α-sma mRNA and protein”. Besides, in [4], the “level of Akt3 phosphorylation in xenograft tumours” value was “selectively reduced the level of Akt3 phosphorylation”. The “nuclear localization of Akt3” value in the assay with Akt3 in MDA-MB-231 cells is “Akt3 stains cytoplasmic”. Also, in assay [5], the “3D tumour cell growth (average tumour sphere size)” value is recorded as “dose-dependent inhibition of 3D tumour cell growth”.
As for `COC(=O)N(C)[C@H]1CC[C@H](CC(=O)Nc2cnc(-c3ccc(C(C)(C)N)cc3)c(-c3ccccc3)c2)CC1` [EX34], in the assay on HMLER-Akt3 cells, the tumour initiation entry is listed as “prevented tumour initiation”. For the same compound, the “Tumour incidence (tumours formed/total number of implantations)” value in the assay with HMLER-Akt3 cells (setting [6]) is on record as 3/10^ns; in the assay with HMLER-Akt3 cells (setting [7]), 0/10^0.0002. The “invasive 3D tumour cell growth” value in assay [2] was “inhibited tumour cell growth”. The “sensitivity to paclitaxel (cell viability)” value with NSCLC cell line H2073 is “sensitizes the paclitaxel resistant cell line H2073 to paclitaxel”. In addition, the “EMT induction (EMT marker Vimentin)” value in the assay with NSCLC cell line H2086 is “prevent EMT induction”. Moreover, the “nuclear localization of Akt3” value in the assay with Akt3 in MDA-MB-231 cells was “prevents nuclear localization of Akt3”. For the same compound, the “3D tumour cell growth (average tumour sphere size)” value in assay [5] is recorded as “dose-dependent inhibition of 3D tumour cell growth”.
